pIC50: −log10 of the molar value. Converted amounts (≈) assume the structure as drawn.
Key:
A549 = assay: Antiproliferative activity against human A549 cells after 48 hrs by MTT assay; format: functional, cell-based; conditions: A549, 48 h
HCT-116 = assay: Antiproliferative activity against human HCT116 cells after 48 hrs by MTT assay; format: functional, cell-based; conditions: HCT-116, 48 h
T47D = assay: Antiproliferative activity against human T47D cells after 48 hrs by MTT assay; format: functional, cell-based
HepG2 = assay: Antiproliferative activity against human HepG2 cells after 48 hrs by MTT assay; format: functional, cell-based; conditions: HepG2, 48 h
[1] = test system: Staphylococcus epidermidis; assay: Antibacterial activity against Staphylococcus epidermidis ATCC 12228 after 20 to 24 hrs by broth microdilution method; format: functional
Micrococcus luteus = assay: Antibacterial activity against Micrococcus luteus ATCC 10240 after 20 to 24 hrs by broth microdilution method; format: functional
Staphylococcus aureus = assay: Antibacterial activity against Staphylococcus aureus ATCC 25923 after 20 to 24 hrs by broth microdilution method; format: functional
Enterococcus faecalis = assay: Antibacterial activity against Enterococcus faecalis ATCC 51299 after 20 to 24 hrs by broth microdilution method; format: functional
Bacillus subtilis = assay: Antibacterial activity against Bacillus subtilis ATCC 11774 after 20 to 24 hrs by broth microdilution method; format: functional
Escherichia coli = assay: Antibacterial activity against Escherichia coli ATCC 10536 after 20 to 24 hrs by broth microdilution method; format: functional
Pseudomonas aeruginosa = assay: Antibacterial activity against Pseudomonas aeruginosa ATCC 10145 after 20 to 24 hrs by broth microdilution method; format: functional
Klebsiella pneumoniae = assay: Antibacterial activity against Klebsiella pneumoniae ATCC BAA-2146 after 20 to 24 hrs by broth microdilution method; format: functional

**Q.** Which results are given for `O=c1[nH]cc(F)c(=O)[nH]1` [FLUOROURACIL]?
**A.** pIC50 (A549): 4.82; pIC50 (HCT-116): 4.58; pIC50 (T47D): 4.92; pIC50 (HepG2): 4.70

**Q.** Which results are given for `CC(C)CC[C@H](O)[C@@H]1C(=O)OC[C@H]1CO`?
**A.** MIC [1]: 128 µg/mL (≈ 592 µM); MIC (Micrococcus luteus): 128 µg/mL (≈ 592 µM); MIC (Staphylococcus aureus): 64 µg/mL (≈ 296 µM); MIC (Enterococcus faecalis): 128 µg/mL (≈ 592 µM); MIC (Bacillus subtilis): 128 µg/mL (≈ 592 µM); MIC (Escherichia coli): 32 µg/mL (≈ 148 µM); MIC (Pseudomonas aeruginosa): 32 µg/mL (≈ 148 µM); MIC (Klebsiella pneumoniae): 64 µg/mL (≈ 296 µM); pIC50 (A549): 4.15; pIC50 (HCT-116): 4.21; pIC50 (T47D): < 4.00; pIC50 (HepG2): < 4.00

**Q.** Which MIC [1] does the source give for `CC1=C2C(O)C(C(C)CO)CCC2(C)C=CC1=O` (stereo unspecified) here?
**A.** > 128 µg/mL

**Q.** And the MIC (Micrococcus luteus)?
**A.** 128 µg/mL (≈ 511 µM)

**Q.** And the MIC (Staphylococcus aureus)?
**A.** 64 µg/mL (≈ 256 µM)

**Q.** And the MIC (Enterococcus faecalis)?
**A.** 128 µg/mL (≈ 511 µM)

**Q.** And the MIC (Bacillus subtilis)?
**A.** 128 µg/mL (≈ 511 µM)

**Q.** And the MIC (Escherichia coli)?
**A.** 32 µg/mL (≈ 128 µM)

**Q.** What about the MIC (Pseudomonas aeruginosa) of the same compound?
**A.** 64 µg/mL (≈ 256 µM)

**Q.** What about the MIC (Klebsiella pneumoniae) of the same compound?
**A.** 32 µg/mL (≈ 128 µM)

**Q.** What about the pIC50 (A549) of the same compound?
**A.** 4.65

**Q.** And the pIC50 (HCT-116)?
**A.** 4.72

**Q.** And the pIC50 (T47D)?
**A.** 4.57

**Q.** What about the pIC50 (HepG2) of the same compound?
**A.** 4.41

**Q.** Which results are given for `CCCCOC(=O)c1ccccc1C(=O)OCC(C)C`?
**A.** MIC [1]: > 128 µg/mL; MIC (Micrococcus luteus): > 128 µg/mL; MIC (Staphylococcus aureus): > 128 µg/mL; MIC (Enterococcus faecalis): > 128 µg/mL; MIC (Bacillus subtilis): > 128 µg/mL; MIC (Escherichia coli): > 128 µg/mL; MIC (Pseudomonas aeruginosa): > 128 µg/mL; MIC (Klebsiella pneumoniae): > 128 µg/mL; pIC50 (A549): 4.42; pIC50 (HCT-116): 4.44; pIC50 (T47D): 4.31; pIC50 (HepG2): 4.27

**Q.** With `C[C@H]1COc2c(N3CCN(C)CC3)c(F)cc3c(=O)c(C(=O)O)cn1c23.C[C@H]1COc2c(N3CCN(C)CC3)c(F)cc3c(=O)c(C(=O)O)cn1c23.O` [LEVOFLOXACIN] as the compound, how does the MIC [1] read?
**A.** 0.039 to 0.078 µg/mL

**Q.** What about the MIC (Micrococcus luteus) of the same compound?
**A.** 0.078 µg/mL

**Q.** What about the MIC (Staphylococcus aureus) of the same compound?
**A.** 0.078 to 0.156 µg/mL

**Q.** What about the MIC (Enterococcus faecalis) of the same compound?
**A.** 0.156 µg/mL

**Q.** What about the MIC (Bacillus subtilis) of the same compound?
**A.** 0.39 µg/mL

**Q.** What about the MIC (Escherichia coli) of the same compound?
**A.** 0.078 µg/mL

**Q.** What about the MIC (Pseudomonas aeruginosa) of the same compound?
**A.** 0.312 to 0.625 µg/mL

**Q.** What about the MIC (Klebsiella pneumoniae) of the same compound?
**A.** 2.5 to 5 µg/mL

**Q.** What does the source list for `NCC[C@H](O)C(=O)N[C@@H]1C[C@H](N)[C@@H](O[C@H]2O[C@H](CN)[C@@H](O)[C@H](O)[C@H]2O)[C@H](O)[C@H]1O[C@H]1O[C@H](CO)[C@@H](O)[C@H](N)[C@H]1O` [AMIKACIN]?
**A.** MIC [1]: 2.5 µg/mL (≈ 4.27 µM); MIC (Micrococcus luteus): 0.39 µg/mL (≈ 0.666 µM); MIC (Staphylococcus aureus): 2.5 µg/mL (≈ 4.27 µM); MIC (Enterococcus faecalis): 0.39 µg/mL (≈ 0.666 µM); MIC (Bacillus subtilis): 0.625 µg/mL (≈ 1.07 µM); MIC (Escherichia coli): 0.312 to 0.625 µg/mL (≈ 0.533 to 1.07 µM); MIC (Pseudomonas aeruginosa): 2.5 µg/mL (≈ 4.27 µM); MIC (Klebsiella pneumoniae): 5 µg/mL (≈ 8.54 µM)
